The text below walks through data of patent publication US8703951B2, “Synthesis of 4H-benzo[D]pyrrolo[1,2-A]thiazoles and indolizino[6,7-b]indole derivatives and their use as antitumor therapeutic agents” (Academia Sinica, priority 2011, dated 2014).

The subject of series [1] is human large cell lung carcinoma H460 xenograft. As to conditions: combination with arsenic trioxide (ATO); background; cited from earlier work.
Series [2] has as its system cisplatin-resistant NTUB 1/P human bladder carcinoma xenografts. As to conditions: combination with arsenic trioxide (ATO); background; cited from earlier work.
Series [3] deals with human lymphoblastic leukemia (CCRF-CEM). In words: In vitro cytotoxicity, XTT assay, CCRF-CEM. The class given is cell-based. From the text:
(§1) Human colon carcinoma HCT-116 cells and human prostate adenocarcinoma PC-3 cells were obtained from American Type Culture Collection (ATCC, Rockville, Md.). Human mammary carcinoma (MX-1) tumor cells were obtained from MSKCC cell bank. The CCRF-CEM human lymphoblastic leukemia cells and their vinblastine resistant subline (CCRF-CEM/VBL, 680-fold resistance in vitro) were obtained from Dr. William Beck of the University of Illinois, Chicago, and CCRF-CEM/Taxol (330-fold resistance in vitro). Resistant cells CCRF-CEM/taxol were produced by exposing the parent cells to increasing sublethal concentration (IC50-IC90) of paclitaxel for six months.
(§2) In preparation for in vitro cytotoxicity assays, cells were cultured at an initial density 2−5×10^4 cells per milliliter. They were maintained in a 5% CO2-humidified atmosphere at 37° C. in RPMI medium 1640 (GIBCO/BRL) containing penicillin (100 units/mL), streptomycin (100 μg/mL, GIBCO/BRL), and 5% heat-inactivated FBS. For cells grown in suspension (such as CCRF-CEM and its sublines), cytotoxicity was measured, by using XTT microculture method^23 in 96-well microtiter plates.
(§3) The cytotoxic effects of the newly synthesized compounds were determined in T-cell acute lymphocytic leukemia (CCRF-CEM) and their resistant subcell lines (CCRF-CEM/Taxol and CCRF-CEM/VBL) by the XTT assay^24 and human solid tumor cells (i.e. breast carcinoma MX-1 and colon carcinoma HCT-116) by the SRB assay^25 in a 72 h incubation using a microplate spectrophotometer as described previously.^25 After the addition of phenazine methosulfate-XTT solution, incubated at 37° C. for 6 h and absorbance at 450 and 630 nm was detected on a microplate reader (EL 340). The cytotoxicity of the newly synthesized compounds against non-small cell lung carcinoma H1299, prostate cancer PC3, oral cancer OECM-1 and glioma U87 were determined by the Alamar blue assay^26 in a 72 h incubation using a microplate spectrophotometer as described previously. After the addition of alamar blue solution, it was incubated at 37° C. for 6 h. Absorbance at 570 and 600 nm was detected on a microplate reader. IC50 values were determined from dose-effect relationship at six or seven concentrations of each drug using the CompuSyn software by Chou and Martin^27 based on the median-effect principle and plot.^28,29 Ranges given for Cisplatin were mean±SE (n=4).

The test system of a further series is CCRF-CEM/Taxol. In words: In vitro cytotoxicity, XTT assay, CCRF-CEM/Taxol. The series is classed as cell-based, human. Conditions: Table 5; for IC50: Taxol-resistant subline, XTT, 72 h, read-out: Cell Growth inhibition (IC50 μM) CCRF-CEM/Taxol; for fold of cross-resistant vs IC50 of the parent cell line, CCRF-CEM/Taxol: number in brackets.
From the text: as §1, §2, §3

Another series has as its system CCRF-CEM/VBL. The experiment in a line: In vitro cytotoxicity, XTT assay, CCRF-CEM/VBL. The series is classed as cell-based, human. As to conditions: Table 5; for fold of cross-resistant vs IC50 of the parent cell line, CCRF-CEM/VBL: number in brackets; for IC50: vinblastine-resistant subline, XTT, 72 h, read-out: Cell Growth inhibition (IC50 μM) CCRF-CEM/VBL.
From the text: as §1, §2, §3

For the next series, the system named is breast carcinoma MX-1. The experiment in a line: In vitro cytotoxicity, SRB assay, MX-1. The series is classed as cell-based, human. Conditions: Table 6, 72 h.
From the text: as §1, §2, §3

A further series deals with colon carcinoma HCT-116. In words: In vitro cytotoxicity, SRB assay, HCT-116. As to conditions: Table 6, 72 h. The series is classed as cell-based, human.
From the text: as §1, §2, §3

The test system of series [4] is non-small cell lung carcinoma H1299. The experiment in a line: In vitro cytotoxicity, Alamar blue assay, H1299. The class given is cell-based, human. How it is done:
(§4) Prostate cancer PC3, non-small cell lung carcinoma cells H1299, and human glioma cells U87 were purchased from the American Type Culture Collection (Rockville, Md.). OECM-1 (human gingival squamous cell carcinoma cells) was obtained from Dr C.-L. Meng (National Defense Medical College, Taiwan).^22
as §2, §3

In a further series the test system is prostate cancer PC3. The experiment in a line: In vitro cytotoxicity, Alamar blue assay, PC3. The class given is cell-based, human. How it is done: as §4, §2, §3
The next series has as its system oral cancer OECM-1. In words: In vitro cytotoxicity, Alamar blue assay, OECM-1. The series is classed as cell-based, human. How it is done:
as §4, §2, §3

The next series has as its system glioma U87. The experiment in a line: In vitro cytotoxicity, Alamar blue assay, U87. The series is classed as cell-based, human. How it is done:
as §4, §2, §3

The test system of the next series is linearized pBR322DNA. The experiment in a line: DNA cross-linking, alkaline agarose gel shift assay. Conditions: 1, 10, and 20 μM; FIG. 8. The series is classed as biochemical. How it is done:
Formation of DNA cross-linking was analyzed by alkaline agarose gel electrophoresis assay. […] The reaction mixture was incubated at 37° C. for 2 h. At the end of reaction, the plasmid DNA was linearized by digestion with BamHI and followed by precipitation with ethanol. The DNA pellets were dissolved and denatured in alkaline buffer (0.5 N NaOH-10 mM EDTA). An aliquot of 20 μL of DNA solution (1000 ng) was mixed with 4 μL of 6× alkaline loading dye and then electrophoretically resolved on a 0.8% alkaline agarose gel with NaOH-EDTA buffer at 4° C. The electrophoresis was carried out at 18 V for 22 h. After staining the gels with an ethidium bromide solution, the DNA was then visualized under UV light.

Series [5] concerns MX-1 human mammary xenograft. In words: Therapeutic efficacy in nude mice bearing MX-1 xenograft. The class given is in vivo. Conditions: for complete tumor remission (CR): FIG. 6, i.v. inj., n=4. How it is done: Athymic nude mice bearing the nu/nu gene were obtained from NCI, Frederick, Md. and used for all human tumor xenografts. Male nude mice, 6 weeks or older, weighing 20-24 g or more were used. Compounds were administered via the tail vein for i.v. injection or infusion as described previously.^26 A typical formulation for chemotherapeutic studies for each drug was dissolved in DSMO to make a 25 mg/ml fresh solution, 0.4 ml of this solution was mixed with 0.3 ml of Tween 80, plus 1.3 ml to make 2 ml of 5 mg/ml solution. Bolus injection volume was 0.1-0.2 ml per mouse. Tumor volume was assessed by measuring length×width×height (or width) by using a caliper. For tumor-bearing nude mice during the course of the experiment, the body weight refers to total weight minus the weight of the tumor. All animal studies were conducted in accordance with the guidelines for the National Institute of Health Guide for the Care and Use of Animals and the protocol approved by the Institutional Animal Care and Use Committee.

[6] abbreviates: Table 5, 72 h incubation, read-out: Cell Growth inhibition (IC50 μM) CCRF-CEM.

Like-named read-outs stand apart in the source and are kept apart here. Bounds are passed on as bounds.

For the compound `CNC(=O)OCc1c(COC(=O)NC)c(-c2ccc(OC)cc2)n2c1Cc1ccccc1-2` [BO-1012], the tumor suppression entry in [1] is listed as “more than 82%”; in series [2], greater than 92%.

In the case of `CCNC(=O)OCc1c(COC(=O)NCC)c2sc3ccccc3n2c1-c1ccc(Cl)cc1` [Compound 19c, (1-(4-Chlorophenyl)benzo[d]pyrrolo[2,1-b]thiazole-2,3-diyl)bis(methylene)bis(ethylcarbamate)], the IC50 is 0.21 ± 0.01 µM in series [3] (setting [6]); 0.32 ± 0.003 µM with CCRF-CEM/Taxol; 0.39 ± 0.012 µM with CCRF-CEM/VBL; 0.91 ± 0.01 µM in the series with breast carcinoma MX-1; 0.7 ± 0.008 µM in the series on colon carcinoma HCT-116; 4.33 ± 0.45 µM in [4] (Table 6, 72 h). Further, the IC50 stood at 13.8 ± 3.78 µM in the series with prostate cancer PC3 (Table 6, 72 h); 11.6 ± 2.84 µM in the series with oral cancer OECM-1 (Table 6, 72 h); 26 ± 2.27 µM in the series with glioma U87 (Table 6, 72 h). For the same compound, in the series with CCRF-CEM/Taxol, the “fold of cross-resistant vs IC50 of the parent cell line, CCRF-CEM/Taxol” value (“fold of cross-resistant vs IC50 … CCRF-CEM/Taxol” below) is listed as 1.52 ×. The “fold of cross-resistant vs IC50 of the parent cell line, CCRF-CEM/VBL” value (from here on “fold of cross-resistant vs IC50 … CCRF-CEM/VBL”) in the series on CCRF-CEM/VBL was 1.85 ×. For the same compound, the DNA interstrand cross-linking entry in the series with linearized pBR322DNA is “able to bind covalently (interstrand cross-linking) with DNA”.

As to `CC(C)NC(=O)OCc1c(-c2ccc(F)cc2)c2sc3ccccc3n2c1COC(=O)NC(C)C` [Compound 20b, (1-(4-Fluorophenyl)benzo[d]pyrrolo[2,1-b]thiazole-2,3-diyl)bis(methylene)bis(iso-propylcarbamate)], the IC50 in [3] (setting [6]) is 0.05 ± 0.001 µM; in the series with CCRF-CEM/Taxol, 0.16 ± 0.007 µM; with CCRF-CEM/VBL it was 0.19 ± 0.003 µM; with breast carcinoma MX-1 it was 0.62 ± 0.014 µM; with colon carcinoma HCT-116 it was 0.35 ± 0.01 µM; in [4] (Table 6, 72 h), 33 ± 3.2 µM. In addition, the IC50 came to 24.2 ± 4.17 µM in the series on prostate cancer PC3 (Table 6, 72 h); 11.9 ± 2.9 µM in the series on oral cancer OECM-1 (Table 6, 72 h); 53.5 ± 9.97 µM in the series on glioma U87 (Table 6, 72 h). Also, the “fold of cross-resistant vs IC50 … CCRF-CEM/Taxol” value in the series on CCRF-CEM/Taxol came to 3.20 ×. In addition, the “fold of cross-resistant vs IC50 … CCRF-CEM/VBL” value with CCRF-CEM/VBL amounted to 3.80 ×. Besides, in [5] (20 mg/kg, Q2Dx3 and then 25 mg/kg, Q2D×4, iv. inj., on D26 and 28), the “complete tumor remission (CR), mice” value is on record as “two out of three”.

With `CC(C)NC(=O)OCc1c(COC(=O)NC(C)C)c2sc3ccccc3n2c1-c1ccc(Cl)cc1` [Compound 20c, (1-(4-Chlorophenyl)benzo[d]pyrrolo[2,1-b]thiazole-2,3-diyl)bis(methylene)bis(iso-propylcarbamate)], the IC50 amounted to 0.08 ± 0.0003 µM in [3] (setting [6]); 0.39 ± 0.004 µM in the series on CCRF-CEM/Taxol; 0.42 ± 0.001 µM with CCRF-CEM/VBL; 1.19 ± 0.004 µM in the series on breast carcinoma MX-1; 1.7 ± 0.006 µM in the series with colon carcinoma HCT-116; 8.75 ± 0.88 µM in [4] (Table 6, 72 h). Further, the IC50 came out at 13.7 ± 1.28 µM in the series with prostate cancer PC3 (Table 6, 72 h); 7.54 ± 0.95 µM with oral cancer OECM-1 (Table 6, 72 h); 29 ± 4.49 µM in the series with glioma U87 (Table 6, 72 h). Besides, in the series on CCRF-CEM/Taxol, the “fold of cross-resistant vs IC50 … CCRF-CEM/Taxol” value is recorded as 4.87 ×. The “fold of cross-resistant vs IC50 … CCRF-CEM/VBL” value in the series on CCRF-CEM/VBL was 5.25 ×. Moreover, in series [5] (20 mg/kg, Q2Dx3 and then 25 mg/kg, Q2Dx5, on D24, 26, and 26, FIG. 5A), the “complete tumor remission, mice” value was “all three”. For the same compound, the DNA interstrand cross-linking entry in the series with linearized pBR322DNA is on record as “able to bind covalently (interstrand cross-linking) with DNA”.

For the compound `CC(C)NC(=O)OCc1c(COC(=O)NC(C)C)c2n(c1-c1ccc(F)cc1)CC(C)c1c-2[nH]c2ccccc12` (centres unmarked) [Compound 28c, [3-(4-Fluorophenyl)-6-methyl-6,11-dihydro-5H-indolizino[6,7-b]indole-1,2-diyl]bis(methylene) (isopropylcarbamate)], the IC50 in series [3] (Table 7, 72 h, read-out: IC50 (μM) CCRF/CEM) came to 0.106 ± 0.004 µM; in series [4] (Table 7, 72 h), 16.9 ± 2.69 µM; in the series with oral cancer OECM-1 (Table 7, 72 h, read-out: IC50 (μM) OECM1) it was 6.56 ± 1.15 µM. For the same compound, in series [5], the “complete tumor remission (CR)” value is “CR was achieved”.

In turn, `CCn1c2c(c3ccccc31)Cc1c(CO)c(CO)c(C)n1C2` [Compound 33b, [6-Ethyl-3-methyl-6,11-dihydro-5H-indolizino[6,7-b]indole-1,2-diyl]dimethanol] showed a melting point of 216 to 217 °C. Further, the IC50 in [3] (Homo sapiens, CCRF-CEM, Table 7, 72 h, read-out: IC50 (μM) CCRF/CEM) came to 0.1 ± 0.002 µM. In addition, the IC50 in series [4] (Homo sapiens, NCI-H1299, Table 7, 72 h) was found to be 2.97 ± 0.55 µM. In the series on prostate cancer PC3 (Homo sapiens, Table 7, 72 h), this compound had an IC50 of 2.66 ± 0.47 µM. The IC50 with oral cancer OECM-1 (Homo sapiens, OECM1, Table 7, 72 h) is 1.17 ± 0.89 µM. Further, the IC50 in the series on glioma U87 (Homo sapiens, Table 7, 72 h) worked out at 6.26 ± 1.43 µM. The “complete tumor remission (CR)” value in series [5] is listed as “CR was achieved”.
